Assay results reported in patent US20230382944A1, “NOVEL COCRYSTALS OF DEXAMETHASONE” (Versitech Limited, priority 2022, published 2023).

Assays:
Format in all cases: physicochemical
[1] = Particle size distribution measurement by laser diffraction; details: sieved below 63 μm, n = 3; for Span: (D90-D10)/D50
Method: The particle size and size distribution of the powders was determined using laser diffraction equipment, Mastersizer 3000 (Malvern Instruments Ltd, Worcestershire, UK) with Aero S dry powder disperser. […] The particle size distribution was calculated from the light scattering pattern using Mie theory. Particle size at 10% (D10), 50% (D50), 90% (D90) of the volume distribution were calculated automatically using the Mastersizer 3000 software […]. Span was calculated as (D90-D10)/D50. All the samples were measured in triplicate.

[2] = Stability study: drug assay by HPLC and PXRD before and after storage at 25° C./75% RH; details: storage 25° C./75% RH; for % Difference (Day 0-Day 30): Day 0 vs Day 30
Method: (§1) The mobile phase consisted of a mixture of methanol and water (65:35, v/v). A 30 μL aliquot of each sample solution was injected onto the column with a flow rate of 1 mL/min.
The samples before and after the storage were collected for PXRD analysis.

[3] = In-vitro drug release study for nasal delivery in pH 5.5 simulated nasal fluid; details: for IDR ratio of DEX cocrystals to DEX: pH 5.5 SNF, estimated by ratio of the slope with sphere assumption; for release in SNF relative to raw DEX (fold faster) / dissolution relative to raw DEX (fold faster): pH 5.5 simulated nasal fluid; for release in SNF relative to raw DEX (fold faster): at 120 min, particle size below 63 μm; for dissolution relative to raw DEX (fold faster): time point not stated
Method: as §1
The solution was stirred at 50 rpm on a magnetic stirrer. The dissolution medium and temperature were selected to mimic the physiological condition in the nasal cavity^35, 36. At designated times of 5, 10, 15, 20, 30, 45, 60, 90, and 120 min, 1 mL of the dissolution medium was withdrawn and replaced with an equal volume of fresh medium. The sample solution was filtered through 0.45 μm nylon syringe filters and assayed for drug content by HPLC. The intrinsic dissolution rate (IDR) is determined by the following equation: IDR=(dm/dt)max/A, where (dm/dt)max is the slope of the initial linear region of the cumulative dissolution curve until 10% of drug is dissolved, and A is the specific surface area of the dissolution sample. The following assumptions were made: (i) spherical particles, (ii) constant particle size, and (iii) constant number of particles during the initial phase of the dissolution experiment under sink condition. With the assumptions, the particle size distribution data collected by laser diffractometry is used for the particle surface area (SAparticle) calculation. The total number of particles (n) subject to dissolution is calculated by Vbulk/Vparticle, where Vparticle is the volume of each primary particle, and Vbulk is the volume of compound added to the dissolution medium. The total surface area of all particles added to the dissolution medium is thus calculated through nSAparticle. Finally, the specific surface area (A, m^2/g) defined as the total surface area of a material per unit of mass could be obtained.

[4] = In-vitro aerosol performance evaluation with Next Generation Impactor; details: NGI; for FPF: 90 L/min, particles <5 μm vs recovered dose
Method: The spray dryer is equipped with a Buchi B-296 Dehumidifier and B-295 Inert Loop and a spray nozzle tip diameter of 0.7 mm with nitrogen as the atomization gas. The formulations were prepared according to the processing parameters listed in Table 6, above, with a rate of aspirations fixed at 100% (approximately 35 m^3/h), resulting in an outlet temperature of about 44° C.
A thin layer of silicon grease (Slipicone; DC Products, Waverley, VIC, Australia) coated onto the impactor stages minimizes particle bounce. […] Precise amounts of methanol were used for rinsing DEX and RES in all stages. The solutions were subsequently filtered using a 0.45 μm nylon syringe filters and the solutions assayed by HPLC. The recovered dose, fine particle fraction (FPF), mass median aerodynamic diameter (MMAD), and geometric standard deviation (GSD) were calculated. The FPF is the mass fraction of the particles <5 μm with respect to the recovered dose. The recovered dose was defined as the sum of powder mass assayed on all the parts.

[5] = spray-dried 1:1 from methanol, flow rate 90 L/min

## C[C@@H]1C[C@H]2[C@@H]3CCC4=CC(=O)C=C[C@]4(C)[C@@]3(F)[C@@H](O)C[C@]2(C)[C@@]1(O)C(=O)CO [DEX, 9-fluoro-11β,17,21-trihydroxy-16α-methylpregna-1,4-diene-3,20-dione, reference compound]
[1]
  Volumetric size D10: 0.93 ± 0.16 μm
  Volumetric size D50: 1.52 ± 0.50 μm
  Span: 3.15 ± 0.46
[2]; Day 0
  % of DEX Remaining (n = 3): 98.77 ± 2.97%
[2]
  % Difference (Day 0-Day 30): 4.27 ± 5.14%
[2]; Day 7
  % of DEX Remaining (n = 3): 97.23 ± 4.27%
[2]; Day 30
  % of DEX Remaining (n = 3): 94.50 ± 3.00%

## CC1CC2C3CCC4=CC(=O)C=CC4(C)C3(F)C(O)CC2(C)C1(O)C(=O)CO.Oc1ccccc1O (centres unmarked) [DEX-CAT]
[3]
  IDR ratio of DEX cocrystals to DEX: 76.86
  release in SNF relative to raw DEX (fold faster): 2.4 fold
  dissolution relative to raw DEX (fold faster): 3 fold
[1]
  Volumetric size D10: 8.49 ± 1.76 μm
  Volumetric size D50: 24.87 ± 6.75 μm
  Volumetric size D90: 49.27 ± 6.42 μm
  Span: 5.14 ± 0.28
[2]; Day 0
  % of DEX Remaining (n = 3): 97.83 ± 2.32%
[2]
  % Difference (Day 0-Day 30): 2.38 ± 5.49%
[2]; Day 7
  % of DEX Remaining (n = 3): 96.73 ± 4.72%
[2]; Day 30
  % of DEX Remaining (n = 3): 95.45 ± 3.35%

## CC1CC2C3CCC4=CC(=O)C=CC4(C)C3(F)C(O)CC2(C)C1(O)C(=O)CO.Oc1cccc(O)c1 (centres unmarked) [DEX-RES]
[3]
  IDR ratio of DEX cocrystals to DEX: 48.29
  release in SNF relative to raw DEX (fold faster): 2.4 fold
  dissolution relative to raw DEX (fold faster): 3 fold
[1]
  Volumetric size D10: 4.46 ± 1.93 μm
  Volumetric size D50: 12.0 ± 0.42 μm
  Volumetric size D90: 35.03 ± 8.92 μm
  Span: 7.69 ± 0.93
[2]; Day 0
  % of DEX Remaining (n = 3): 99.65 ± 2.58%
[2]
  % Difference (Day 0-Day 30): 4.50 ± 4.07%
[2]; Day 7
  % of DEX Remaining (n = 3): 97.18 ± 3.87%
[2]; Day 30
  % of DEX Remaining (n = 3): 95.15 ± 3.17%
[4]; spray-dried 1:1 from methanol
  FPF: 35.43 % w/w
[4]; spray-dried 1:1 from methanol, listed as spray dried cocrystal formulation
  FPF: 35.43±4.97 % w/w
[4]; [5]
  GSD: 2.30 μm
  MMAD: 2.96 μm
[4]; spray-dried 1:1 from methanol, flow rate 90 L/min, listed as spray dried cocrystal formulation
  MMAD: 2.96±0.49 μm
[4]; spray-dried, aerodynamic diameters 3.61 to 0.76 μm
  aerosolized powders deposited on stages 3-6: 30.26%
